In PMC5727165, “A switch in nucleotide affinity governs activation of the Src and Tec family kinases” (Scientific Reports, 2017):
Several values for one entry are separate records, joined by “and”; a condition that tells them apart may be missing. Identical values can stand only once.

Experiments:
Src^32K = biological target: T1, Src^32K (Mus musculus, UniProt P05480); test: Fluorescence anisotropy binding of Mant-labelled nucleotides
T1 construct: mouse Src^85-535 (Src^32K); GST (cleaved yes); made in house; host or cells: baculovirus-infected Sf9 insect cells, co-expressed with human Csk
T1 sequence (P05480 85-535): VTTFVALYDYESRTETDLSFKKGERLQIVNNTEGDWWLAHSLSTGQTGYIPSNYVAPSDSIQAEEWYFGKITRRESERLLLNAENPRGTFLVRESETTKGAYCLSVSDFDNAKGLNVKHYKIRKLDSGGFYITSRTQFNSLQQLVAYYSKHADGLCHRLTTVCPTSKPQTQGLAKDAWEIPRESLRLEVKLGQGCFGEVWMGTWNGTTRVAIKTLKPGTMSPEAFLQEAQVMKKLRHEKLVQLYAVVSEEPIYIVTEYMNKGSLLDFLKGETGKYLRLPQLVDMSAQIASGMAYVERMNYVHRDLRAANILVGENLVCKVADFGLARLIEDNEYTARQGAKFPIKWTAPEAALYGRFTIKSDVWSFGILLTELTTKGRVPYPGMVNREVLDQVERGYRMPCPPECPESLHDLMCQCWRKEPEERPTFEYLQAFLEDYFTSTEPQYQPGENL
From the text: (§1) To characterise the nucleotide binding of Itk and Src, we purified recombinant wild type and mutant constructs of Itk and Src containing their respective SH3, SH2, and kinase domains (from here on referred to as Itk^32K, Src^32K, and Src^32KΔC, Fig. 1a). We confirmed the mass and homogeneity of isolated species by high-resolution anion exchange chromatography, intact mass spectrometry, and Western blotting with phospho-specific antibodies (Supplementary Figs 1–3). We performed fluorescence anisotropy measurements using Mant-labelled nucleotides. […] To avoid autophosphorylation during the course of the titration, we used the non-hydrolysable ATP analogue AMPPNP. […] Src^32K bound ADP approximately 6-fold more tightly than AMPPNP (Supplementary Fig. 4d).
(§2) Human Itk^171–620 (Itk^32K), mouse Src^85-535 (Src^32K), and mouse Src^85-523 (Src^32KΔC) as well as their respective point mutants were expressed as GST fusions in baculovirus-infected Sf9 insect cells. For the generation of Tyr527-phosphorylated Src^85-535, the protein was co-expressed with human Csk using pFastBac Dual (Invitrogen). Proteins were purified by sequential glutathione-sepharose affinity chromatography, TEV cleavage, high-resolution anion exchange, and size exclusion chromatography in a final buffer of 50 mM Tris, pH 7.5, 200 mM NaCl, 1 mM TCEP, 1% (v/v) glycerol.
(§3) The binding constants for ADP and AMPPNP were determined for Src and Itk proteins by fluorescence anisotropy, using 2′/3′-Mant-labelled nucleotides (Jena Bioscience). Increasing concentrations of Itk^32K, Itk^L351A or Src^32K were incubated with 40 μM Mant-nucleotide in 30 mM Tris pH 7.5, 200 mM NaCl, 5 mM MgCl2, and 1 mM TCEP. Measurements were made with a Perkin Elmer LS50B fluorimeter (λex = 355 nm, λem = 447 nm) at 20 °C. For each data point 50–60 measurements, each with an integration time of 1 s, were averaged. For competition nucleotide displacement assays, 40–80 μM of protein was incubated with 40 μM Mant-ADP until equilibrium was established. Unlabelled nucleotide was titrated into the reaction and fluorescence anisotropy monitored. The equilibrium inhibition constant for the unlabelled nucleotide was calculated from the fitted curve.

Itk^32K = biological target: T2, Itk^32K (Homo sapiens, UniProt Q08881); test: as above; details: wild type Itk^32K; 40 μM Mant-nucleotide, 20 °C
T2 construct: Human Itk^171–620 (Itk^32K); GST (cleaved yes); made in house; host or cells: baculovirus-infected Sf9 insect cells
T2 sequence (Q08881 171-620): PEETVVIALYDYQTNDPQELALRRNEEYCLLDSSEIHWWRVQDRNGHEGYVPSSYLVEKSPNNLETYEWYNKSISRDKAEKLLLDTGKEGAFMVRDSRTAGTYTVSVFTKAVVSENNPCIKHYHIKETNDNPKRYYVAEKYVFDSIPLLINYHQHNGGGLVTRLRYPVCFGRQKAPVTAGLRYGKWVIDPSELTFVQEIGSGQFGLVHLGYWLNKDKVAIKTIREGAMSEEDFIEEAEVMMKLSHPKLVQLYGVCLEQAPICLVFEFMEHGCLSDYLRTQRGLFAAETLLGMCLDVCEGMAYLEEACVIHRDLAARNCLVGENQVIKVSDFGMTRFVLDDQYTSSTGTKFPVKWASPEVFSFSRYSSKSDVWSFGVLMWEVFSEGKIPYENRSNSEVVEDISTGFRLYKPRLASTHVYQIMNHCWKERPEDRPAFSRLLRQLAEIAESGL
From the text: as §1, §2, §3

Src^32KΔC = biological target: T3, Src^32KΔC (Mus musculus, UniProt P05480); test: Competition nucleotide displacement assay (Mant-ADP, fluorescence anisotropy); format: binding
T3 construct: mouse Src^85-523 (Src^32KΔC); GST (cleaved yes); made in house; host or cells: baculovirus-infected Sf9 insect cells
T3 sequence (P05480 85-523, stated change not applied): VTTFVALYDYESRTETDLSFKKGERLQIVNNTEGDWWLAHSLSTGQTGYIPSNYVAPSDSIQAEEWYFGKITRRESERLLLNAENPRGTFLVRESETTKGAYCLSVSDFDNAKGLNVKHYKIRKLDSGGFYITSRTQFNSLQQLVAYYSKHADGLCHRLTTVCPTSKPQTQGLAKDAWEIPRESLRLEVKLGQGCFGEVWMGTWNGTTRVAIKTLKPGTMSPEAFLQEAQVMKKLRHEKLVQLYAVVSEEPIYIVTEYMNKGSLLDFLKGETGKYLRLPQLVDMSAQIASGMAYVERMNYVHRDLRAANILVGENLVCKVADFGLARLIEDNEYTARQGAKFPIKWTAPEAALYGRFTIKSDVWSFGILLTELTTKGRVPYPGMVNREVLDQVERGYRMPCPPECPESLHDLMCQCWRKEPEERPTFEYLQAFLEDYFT
Method: Figure 2 Itk adopts a Src-like autoinhibited conformation. (a) Competition nucleotide displacement assay for Src^32KΔC. 40 μM Src^32KΔC was incubated with 40 μM Mant-ADP until equilibrium was established. Unlabelled ADP or AMPPNP was titrated into the reaction and fluorescence anisotropy monitored. […] (b) Small angle X-ray scattering curves for Itk^32K (cyan), Src^32K (magenta), Src^32KΔC (blue), and Src^32K R175L (green). […] (d) Table of physical parameters obtained from the scattering curves for Itk^32K, Src^32K, Src^32KΔC, and Src^32K R175L. (e)Ab initio model of Itk^32K and docking of autoinhibited Src (2SRC.pdb) into the molecular envelope. Two orientations of the envelope are shown for clarity. (f) Ab initio molecular envelope for Src^32KΔC illustrates the fit of the crystal structure of autoinhibited Src. TEXT PRINTED IN THE PICTURE: (a) ADP: Src^32KΔC Ki (mM): 0.03 ± 0.008 | (a) ANP: Src^32KΔC Ki (mM): 0.69 ± 0.140
as §3

Kd (Src^32K; Mant-labelled nucleotide): 66 µM
fold difference in affinity, ADP tighter than AMPPNP (Src^32K; direct Mant-nucleotide binding): approximately 6 fold
Kd (Itk^32K): 23.7 µM and 24 µM
Ki (Src^32KΔC; 40 μM Src^32KΔC, 40 μM Mant-ADP, read-out: Ki (equilibrium inhibition constant)): 30 ± 8 µM
fold difference in Ki, ADP preferred over AMPPNP (Src^32KΔC; Src^32KΔC, displacement of Mant-ADP): approximately 23 fold
SMILES: Nc1ncnc2c1ncn2[C@@H]1O[C@H](COP(=O)(O)OP(=O)(O)O)[C@@H](O)[C@H]1O [ADP]
